Data as given in US12357579B2, “Capsule for treating ulcerative colitis” (KEIO UNIVERSITY, priority 2018, dated 2025).

Tests used:
[1] = test system: colitis model mice (2.0% DSS, C57BL/6J); assay: DSS-induced colitis model mice: colitis-suppressing action (body weight, DAI score, colon length); assay type: in vivo; details: oral, 7 days; for effect on colitis (overall): indigo amount 0.5 mg/day (equivalent to 25 mg/kg/day)
Procedure: As mice used in an animal test, C57BL/6J was started to use after preliminary breeding for 3 days after purchase. First, a 2.0% solution of DSS (dextran sulfate sodium salt, molecular weight 36,000 to 44,000) was given to mice to cause colitis to prepare colitis model mice. The colitis model mice were administered with only sterilized water to obtain control mice. It should be noted that, in order to maintain the colitis state of the mice for 7 days, the 2.0% DDS (dextran sulfate sodium salt) solution was orally administered at the same time as the administration of the sterile water. Five capsules (equivalent to indigo amount of 0.5 mg) and 15 capsules (equivalent to indigo amount of 1.5 mg) both of which were the indigo-containing capsules A were each orally administered to 5 specimens of colitis mice for 7 days. It should be noted that, in order to maintain the colitis state of the mice for 7 days, the 2.0% DDS (dextran sulfate sodium salt) solution was orally administered at the same time when the oral administration of the capsules A. Colitis-suppressing action of indigo was evaluated by a decrease in the endpoints such as body weight (BW), disease activity index (DAI) score (DAI score: a total score (0 to 12) of the number of defecation, bloody stool, mucosal findings, and general endpoints scored 0 to 3 on a 4-point scale), and colon length. […] FIG. 3 is a graph representing results of disease activity index score (DAI score). It should be noted that the DAI score refers to an evaluation index described in the literature “Sutherland L R, Martin F, Greer S, et al: 5-Aminosalicylic acid enema in the treatment of distal colitis, proctosigmoiditis, and proctitis. Gastroenterology 92: 1894-1898, 1987”. FIG. 4 is a graph representing results of measuring colon length. Since the colon length is shortened by causing colitis, the colon length of each mouse group was measured as another index for the evaluation of colitis, and the average value thereof was represented by a histogram.

[2] = test system: mouse model of colitis; details: cited from earlier work
[3] = indigo amount 0.5 mg/day, vs control group

Structure (SMILES): O=C1/C(=C2\Nc3ccccc3C2=O)Nc2ccccc21 [indigo powder, indigo]
- effect on colitis (overall) [1]: no effect of indigo was observed
- effect on colitis (overall) ([1]; listed as powder): no effect
- changes in body weight (BW) [1, 3]: decreasing the body weight was also observed as compared with the control group
- colon length [1, 3]: the same as that of the control group
- effect in colitis model mice ([2]; low dose 60 mg/kg/day of powder): effective
- therapeutic effect in mouse model of colitis ([2]; powder administration): had a therapeutic effect
